Measurements from US20230045421A1 (priority 2018, published 2023).
Where two headings read alike, the source gives them in different places.

System: HBV rcDNA
Experiment: HepDE19 assay with bDNA quantitation of HBV rcDNA
Assay type: cell-based, hepatitis B virus
How it was run: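 HepDE19 cells (HepG2-derived, Tet-regulated HBV replication) were deprived of tetracycline and then exposed to compounds for 7 days at 37 °C in 0.5% DMSO, 8-point titration from 25 μM. rcDNA was quantified by bDNA and EC50/EC90 came from 4-parameter fits. CC50 was measured by CellTiter-Glo ATP content on replicate plates after 4 days.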

[1] = read-out: DE-19bDNA EC50, HepDE19 assay, inhibition of formation of relaxed circular DNA (rcDNA), bDNA quantitation
[2] = HepDE19 assay, inhibition of formation of relaxed circular DNA (rcDNA), bDNA quantitation, read-out: DE-19bDNA EC50
[3] = HepDE19 assay, inhibition of formation of rcDNA, read-out: DE-19bDNA EC50
[4] = Hepatitis B virus, HepDE19, read-out: DE-19bDNA EC50 (μM), HepDE19 assay, inhibition of formation of relaxed circular DNA (rcDNA), bDNA quantitation
[5] = Hepatitis B virus, HepDE19, HepDE19 assay, inhibition of formation of rcDNA, read-out: DE-19bDNA EC50
[6] = Hepatitis B virus, HepDE19, HepDE19 assay, inhibition of formation of relaxed circular DNA (rcDNA), bDNA quantitation, read-out: DE-19bDNA EC50

CN(C(=O)Nc1ccc(F)c(Cl)c1)C(CO)c1c[nH]c(=O)c2ccccc12 (single isomer, unassigned) [Compound 380, 3-(3-Chloro-4-fluorophenyl)-1-(2-hydroxy-1-(1-oxo-1,2-dihydroisoquinolin-4-yl)ethyl)-1-methylurea]
EC50 [1]: 17 µM

CC(c1c[nH]c(=O)c2c(F)cc(F)cc12)N(C)C(=O)Nc1ccc(F)c(Cl)c1 (single isomer, unassigned) [Compound 369, 3-(3-Chloro-4-fluorophenyl)-1-(1-(6,8-difluoro-1-oxo-1,2-dihydroisoquinolin-4-yl)ethyl)-1-methylurea]
EC50 [2]: 0.019 µM

CC(c1c[nH]c(=O)c2ccccc12)N(CC1CC1)C(=O)Nc1ccc(F)c(Cl)c1 (single isomer, unassigned) [Compound 85, 3-(3-Chloro-4-fluorophenyl)-1-(cyclopropylmethyl)-1-(1-(1-oxo-1,2-dihydroisoquinolin-4-yl)ethyl)urea]
EC50 [3]: 0.46 µM

CC(c1cnc(-n2ccnn2)c2ccccc12)N(C)C(=O)Nc1ccc(F)c(Cl)c1 (single isomer, unassigned) [Compound 425, 1-(1-(1-(1H-1,2,3-Triazol-1-yl)isoquinolin-4-yl)ethyl)-3-(3-chloro-4-fluorophenyl)-1-methylurea]
EC50 [2]: 0.09 µM

CCN(C(=O)Nc1ccc(F)c(F)c1)C(C)c1c[nH]c(=O)c2cc(F)c(F)cc12 (single isomer, unassigned) [Compound 422, 1-(1-(6,7-Difluoro-1-oxo-1,2-dihydroisoquinolin-4-yl)ethyl)-3-(3,4-difluorophenyl)-1-ethylurea]
EC50 [2]: 2.8 µM

[2H]C([2H])([2H])N(C(=O)Nc1cccc(Cl)c1)C(C)c1c[nH]c(=O)c2c(F)c(F)ccc12 (single isomer, unassigned) [Compound 474, 3-(3-Chlorophenyl)-1-(1-(7,8-difluoro-1-oxo-1,2-dihydroisoquinolin-4-yl)ethyl)-1-(methyl-d3)urea]
EC50 [4]: 0.015 µM

CC(=O)N1CCC(CN(C(=O)Nc2ccc(F)c(Cl)c2)C(C)c2c[nH]c(=O)c3ccccc23)CC1 (single isomer, unassigned) [Compound 201, 1-((1-Acetylpiperidin-4-yl)methyl)-3-(3-chloro-4-fluorophenyl)-1-(1-(1-oxo-1,2-dihydroisoquinolin-4-yl)ethyl)urea]
EC50 [3]: 0.22 µM

CNc1ncc(C(C)N(C)C(=O)Nc2ccc(F)c(Cl)c2)c2nccnc12 (racemic) [Compound 136, 3-(3-chloro-4-fluorophenyl)-1-methyl-1-(1-(5-(methylamino)pyrido[3,4-b]pyrazin-8-yl)ethyl)urea]
EC50 [5]: 2.8 µM

CC(c1c[nH]c(=O)c2ncccc12)N(C)C(=O)Nc1ccc(F)c(Cl)c1 (stereo not drawn) [Compound 153, 3-(3-chloro-4-fluorophenyl)-1-methyl-1-(1-(8-oxo-7,8-dihydro-1,7-naphthyridin-5-yl)ethyl)urea]
EC50 [5]: 0.87 µM

CNC(=O)N(C)C(C)c1c[nH]c(=O)c2ccccc12 (single isomer, unassigned) [Compound 298, 1,3-Dimethyl-1-(1-(1-oxo-1,2-dihydroisoquinolin-4-yl)ethyl)urea]
EC50 [6]: 24 µM

COCCN(C(=O)Nc1ccc(F)c(Cl)c1)C(C)c1cnc(OC)c2ccccc12 (single isomer, unassigned) [Compound 72, 3-(3-Chloro-4-fluorophenyl)-1-(2-methoxyethyl)-1-(1-(1-methoxyisoquinolin-4-yl)ethyl)urea]
EC50 [3]: 21 µM

CC(c1c[nH]c(=O)c2c(F)c(F)ccc12)N(CCCO)C(=O)Nc1ccc(F)c(Cl)c1 (single isomer, unassigned) [Compound 334, 3-(3-Chloro-4-fluorophenyl)-1-(1-(7,8-difluoro-1-oxo-1,2-dihydroisoquinolin-4-yl)ethyl)-1-(3-hydroxypropyl)urea]
EC50 [2]: 2 µM

Cc1cc(NC(=O)N(C)[C@H](C)c2c[nH]c(=O)c3ccccc23)ccc1F [Compound 32, (R)-3-(4-Fluoro-3-methylphenyl)-1-methyl-1-(1-(1-oxo-1,2-dihydroisoquinolin-4-yl)ethyl)urea]
EC50 [5]: 0.03 µM

CC(c1c[nH]c(=O)c2cc(F)c(F)cc12)N(CCS(N)(=O)=O)C(=O)Nc1ccc(F)cc1 (single isomer, unassigned) [Compound 387, 2-(1-(1-(6,7-Difluoro-1-oxo-1,2-dihydroisoquinolin-4-yl)ethyl)-3-(4-fluorophenyl)ureido)ethane-1-sulfonamide]
EC50 [2]: 0.04 µM

CC(c1c[nH]c(=O)c2ccccc12)N(CCNCC(F)F)C(=O)Nc1ccc(F)c(Cl)c1 (single isomer, unassigned) [Compound 199, 3-(3-Chloro-4-fluorophenyl)-1-(2-((2,2-difluoroethyl)amino)ethyl)-1-(1-(1-oxo-1,2-dihydroisoquinolin-4-yl)ethyl)urea]
EC50 [3]: 2.2 µM

CC(c1c[nH]c(=O)c2cnccc12)N(C)C(=O)Nc1ccc(F)c(Cl)c1 (stereo not drawn) [Compound 111, 3-(3-Chloro-4-fluorophenyl)-1-methyl-1-(1-(1-oxo-1,2-dihydro-2,7-naphthyridin-4-yl)ethyl)urea]
EC50 [5]: 0.25 µM

CC(C)CN(C(=O)Nc1ccc(F)cc1)C(C)c1c[nH]c(=O)c2cc(F)c(F)cc12 (single isomer, unassigned) [Compound 287, 1-(1-(6,7-Difluoro-1-oxo-1,2-dihydroisoquinolin-4-yl)ethyl)-3-(4-fluorophenyl)-1-isobutylurea]
EC50 [2]: 1.5 µM

COc1ncc(C(CCO)NC(=O)Nc2ccc(F)c(Cl)c2)c2ccccc12 (racemic) [Compound 71, 1-(3-Chloro-4-fluorophenyl)-3-(3-hydroxy-1-(1-methoxyisoquinolin-4-yl)propyl)urea]
EC50 [5]: 4.4 µM

CC(c1c[nH]c(=O)c2cc(F)c(F)cc12)N(C)C(=O)Nc1cccc(F)c1 (single isomer, unassigned) [Compound 410, 1-(1-(6,7-Difluoro-1-oxo-1,2-dihydroisoquinolin-4-yl)ethyl)-3-(3-fluorophenyl)-1-methylurea]
EC50 [1]: 2.8 µM

CC(c1cnc(OCc2ncn(C)n2)c2cc(F)c(F)cc12)N(C)C(=O)Nc1ccc(F)c(Cl)c1 (single isomer, unassigned) [Compound 346, 3-(3-Chloro-4-fluorophenyl)-1-(1-(6,7-difluoro-1-((1-methyl-1H-1,2,4-triazol-3-yl)methoxy)isoquinolin-4-yl)ethyl)-1-methylurea]
EC50 [2]: 0.67 µM

COCCOCCN(C(=O)Nc1ccc(F)c(Cl)c1)C(C)c1cnc(OC)c2ccccc12 (single isomer, unassigned) [Compound 122, 3-(3-Chloro-4-fluorophenyl)-1-(2-(2-methoxyethoxy)ethyl)-1-(1-(1-methoxyisoquinolin-4-yl)ethyl)urea]
EC50 [3]: 1.2 µM

C[C@H](c1c[nH]c(=O)c2ccccc12)N(C)C(=O)Nc1ccc(Br)cc1 [Compound 294, (R)-3-(4-Bromophenyl)-1-methyl-1-(1-(1-oxo-1,2-dihydroisoquinolin-4-yl)ethyl)urea]
EC50 [4]: 0.87 µM

CC(c1c[nH]c(=O)c2cnccc12)N(CCCO)C(=O)Nc1ccc(F)c(Cl)c1 (single isomer, unassigned) [Compound 251, 3-(3-Chloro-4-fluorophenyl)-1-(3-hydroxypropyl)-1-(1-(1-oxo-1,2-dihydro-2,7-naphthyridin-4-yl)ethyl)urea]
EC50 [3]: 15 µM

CC(c1c[nH]c(=O)c2ccccc12)N(CCC(=O)N(C)C)C(=O)Nc1ccc(F)c(Cl)c1 (single isomer, unassigned) [Compound 105, 3-(3-(3-Chloro-4-fluorophenyl)-1-(1-(1-oxo-1,2-dihydroisoquinolin-4-yl)ethyl)ureido)-N,N-dimethylpropanamide]
EC50 [3]: 3.4 µM

CC(C)CN(C(=O)Nc1ccc(F)c(Cl)c1)C(C)c1cnc(-n2ccnn2)c2ccccc12 (racemic) [Compound 355, 1-(1-(1-(1H-1,2,3-Triazol-1-yl)isoquinolin-4-yl)ethyl)-3-(3-chloro-4-fluorophenyl)-1-isobutylurea]
EC50 [6]: 0.018 µM

COCCCN(C(=O)Nc1ccc(F)c(Cl)c1)C(C)c1c[nH]c(=O)c2ccccc12 (stereo not drawn) [Compound 79]
EC50 [3]: 2.1 µM

CCCCN(C(=O)Nc1ccc(F)c(Cl)c1)C(C)c1c[nH]c(=O)c2ccccc12 (single isomer, unassigned) [Compound 83, 1-Butyl-3-(3-chloro-4-fluorophenyl)-1-(1-(1-oxo-1,2-dihydroisoquinolin-4-yl)ethyl)urea]
EC50 (read-out: DE-19bDNA EC50, HepDE19 assay, inhibition of formation of rcDNA): 0.86 µM

CC(c1c[nH]c(=O)c2ccccc12)N(CC1COC(C)(C)OC1)C(=O)Nc1ccc(F)c(Cl)c1 (single isomer, unassigned) [Compound 273, 3-(3-Chloro-4-fluorophenyl)-1-((2,2-dimethyl-1,3-dioxan-5-yl)methyl)-1-(1-(1-oxo-1,2-dihydroisoquinolin-4-yl)ethyl)urea]
EC50 [3]: 0.17 µM

CCN(C(=O)Nc1ccc(F)c(Cl)c1)C(c1c[nH]c(=O)c2ccccc12)C(F)(F)F (single isomer, unassigned) [Compound 76, 3-(3-Chloro-4-fluorophenyl)-1-ethyl-1-(2,2,2-trifluoro-1-(1-oxo-1,2-dihydroisoquinolin-4-yl)ethyl)urea]
EC50 [3]: 1.4 µM

CC(C)CN(C(=O)Nc1ccc(F)cc1)C(C)c1c[nH]c(=O)c2c(F)cc(F)cc12 (single isomer, unassigned) [Compound 375, 1-(1-(6,8-Difluoro-1-oxo-1,2-dihydroisoquinolin-4-yl)ethyl)-3-(4-fluorophenyl)-1-isobutylurea]
EC50 [2]: 1.7 µM
